Test results published in ChEMBL document CHEMBL1201862, “PubChem BioAssay data set” (2004).
Calls of active or inactive are those of the source.

Assays:
[1] = Shn3 3'UTR reporter inhibitors, dose response, cell-based, Clone20 osteoblasts, firefly luciferase, cherry-picked (AID 624132); assay type: functional;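 note: firefly luciferase luminescence from reporter carrying the Shn3 3'UTR in osteoblasts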
[2] = HepG2 cell cytotoxicity, dose response, cytotoxicity control for Shn3 inhibitor project, CellTiter-Glo, cherry-picked (AID 624134); assay type: functional, cell-based
[3] = control 3'UTR Renilla luciferase suppression, dose response, counter-screen for Shn3 inhibitor project, cell-based, Clone20-Shn3RL, cherry-picked (AID 624133); assay type: functional
Protein Wnt-3a = Protein Wnt-3a (Mus musculus, UniProt P27467); test: Wnt3a-driven reporter signaling inhibition, dose response, selectivity assay for Gli-SUFU antagonist project, Wnt-LIGHT cells, luminescence (AID 651570); assay type: functional; conditions: read-out: IC50_Mean;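 note: Wnt-LIGHT reporter cells stimulated with conditioned medium from Wnt3a-producing cells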
[4] = cytotoxicity in HEK-293T cells, dose response, cytotoxicity control for BCR NF-kB inhibitor project, luminescence, B-cell screen hits (AID 489021); assay type: functional, cell-based;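 note: HEK-293T cells carrying an NF-kB luciferase reporter; cells exposed to compound for about 14 hours before viability readout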
[5] = biological target: T1, Ubiquitin-conjugating enzyme E2 N (Homo sapiens, UniProt P61088); assay type: functional;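 note: Dose-response confirmation in a TR-FRET assay detecting UBC13-driven polyubiquitin chain formation, inhibition measured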
T1 sequence (P61088 whole entry): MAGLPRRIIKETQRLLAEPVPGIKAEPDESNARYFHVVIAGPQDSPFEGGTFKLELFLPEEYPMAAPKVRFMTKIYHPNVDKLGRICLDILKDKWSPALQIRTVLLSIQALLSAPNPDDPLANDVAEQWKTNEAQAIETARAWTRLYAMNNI

Escherichia coli = test: microbe, parasite or virus in culture
P388/ADR = test: cells; assay type: functional; conditions: Mus musculus
SN12K1 = test: cells; assay type: functional; conditions: Homo sapiens
P388 = test: cells; assay type: functional; conditions: Mus musculus
[6] = biological target: T2, Histone-lysine N-methyltransferase NSD2 (Homo sapiens, UniProt O96028); assay type: biochemical
T2 sequence (O96028 whole entry): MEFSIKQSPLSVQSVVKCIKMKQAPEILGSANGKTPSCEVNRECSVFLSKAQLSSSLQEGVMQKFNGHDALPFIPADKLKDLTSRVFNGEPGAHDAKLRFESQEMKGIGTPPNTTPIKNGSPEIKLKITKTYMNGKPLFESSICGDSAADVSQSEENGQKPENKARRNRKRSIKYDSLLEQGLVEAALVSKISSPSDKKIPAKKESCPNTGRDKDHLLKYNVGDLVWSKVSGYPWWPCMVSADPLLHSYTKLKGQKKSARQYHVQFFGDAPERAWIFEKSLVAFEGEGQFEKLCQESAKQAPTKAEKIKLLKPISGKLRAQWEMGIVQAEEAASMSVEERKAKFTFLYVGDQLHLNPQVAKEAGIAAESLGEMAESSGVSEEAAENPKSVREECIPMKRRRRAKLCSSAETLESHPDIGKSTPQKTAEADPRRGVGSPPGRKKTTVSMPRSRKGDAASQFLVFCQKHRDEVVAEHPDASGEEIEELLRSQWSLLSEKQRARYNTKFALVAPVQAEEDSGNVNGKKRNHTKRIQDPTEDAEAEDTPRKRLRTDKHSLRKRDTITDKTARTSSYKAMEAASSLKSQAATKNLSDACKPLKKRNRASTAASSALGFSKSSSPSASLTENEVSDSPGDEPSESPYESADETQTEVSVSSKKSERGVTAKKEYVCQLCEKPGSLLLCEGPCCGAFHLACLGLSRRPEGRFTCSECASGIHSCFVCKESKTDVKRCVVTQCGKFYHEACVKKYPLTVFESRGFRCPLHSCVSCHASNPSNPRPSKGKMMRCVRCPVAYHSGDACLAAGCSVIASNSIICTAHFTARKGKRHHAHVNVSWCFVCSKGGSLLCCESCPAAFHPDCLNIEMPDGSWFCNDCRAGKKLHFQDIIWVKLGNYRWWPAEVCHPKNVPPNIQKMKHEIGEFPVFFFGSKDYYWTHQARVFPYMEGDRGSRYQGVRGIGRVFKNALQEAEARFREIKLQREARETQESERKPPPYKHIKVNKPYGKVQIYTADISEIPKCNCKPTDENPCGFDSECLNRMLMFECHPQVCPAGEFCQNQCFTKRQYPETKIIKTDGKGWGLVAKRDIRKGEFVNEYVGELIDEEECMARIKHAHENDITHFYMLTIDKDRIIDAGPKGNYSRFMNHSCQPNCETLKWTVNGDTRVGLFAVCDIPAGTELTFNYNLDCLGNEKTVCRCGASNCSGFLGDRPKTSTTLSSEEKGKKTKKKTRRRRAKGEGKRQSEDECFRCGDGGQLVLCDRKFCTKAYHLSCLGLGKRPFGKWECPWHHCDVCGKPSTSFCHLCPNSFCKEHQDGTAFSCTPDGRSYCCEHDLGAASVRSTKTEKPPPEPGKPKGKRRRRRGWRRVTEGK

BJ [7] = test: cytotoxicity toward BJ-TERT fibroblasts, dose response, cell-based, RAS-independent, luminescence (AID 1933); assay type: functional; conditions: Homo sapiens
BJ [8] = test: cells; assay type: functional, cell-based; conditions: Homo sapiens
BJ [9] = test: cytotoxicity toward BJ-TERT-LT-ST fibroblasts, dose response, cell-based, RAS-independent, luminescence (AID 1935); assay type: functional; conditions: Homo sapiens;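 note: BJ fibroblasts immortalized with TERT plus LT and ST oncogenes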
[10] = cytotoxicity toward DRD oncogenic fibroblasts, dose response, cell-based, non-viral oncogenic, luminescence (AID 1934); assay type: functional; conditions: Homo sapiens
[11] = Luminescence Cell-Based Dose Retest to Confirm Inhibitors of Cancer Stem Cells. [Related pubchem assays (depositor defined):AID2717, AID2721]; assay type: functional; conditions: Homo sapiens
[12] = cytotoxicity in HEK-293T cells, dose response, cytotoxicity control for TCR NF-kB inhibitor project, luminescence, T-cell screen hits (AID 489026); assay type: functional, cell-based;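 note: cells exposed to compound about 14 hours before the viability readout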

Protein Wnt-3a, sequence (P27467 whole entry): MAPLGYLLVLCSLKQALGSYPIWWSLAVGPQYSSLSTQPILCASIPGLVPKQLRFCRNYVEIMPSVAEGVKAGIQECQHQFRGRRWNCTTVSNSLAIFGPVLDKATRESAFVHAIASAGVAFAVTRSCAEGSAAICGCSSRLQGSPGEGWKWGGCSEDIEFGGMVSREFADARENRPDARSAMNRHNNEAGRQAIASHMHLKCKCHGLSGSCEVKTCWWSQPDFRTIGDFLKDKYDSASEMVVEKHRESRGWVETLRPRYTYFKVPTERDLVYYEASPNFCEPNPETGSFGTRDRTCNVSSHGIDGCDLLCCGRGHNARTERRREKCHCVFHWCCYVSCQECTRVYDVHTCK

Structure (SMILES)	GI50 (P388/ADR)	GI50 (SN12K1)	GI50 (P388)	further results
CN(CCOc1ccc(Cl)cc1)C(=O)c1cccc(S(=O)(=O)N2CCN(c3ccc(F)cc3)CC2)c1				AC50 [1]: 1.77 µM (active); AC50 [2]: 2.46 µM (active); AC50 [3]: 6.21 µM (active); IC50 (Protein Wnt-3a): 8.36 µM (active)
CCN(CC(=O)Nc1c(F)cccc1F)C(=O)C1(c2ccccc2)CC1				IC50 [4]: > 80 µM (inactive)
Cc1ncc(S(=O)(=O)c2ccc(Cl)cc2)c(N)n1				IC50 [5]: > 20 µM (inactive)
CC(=O)c1cc(CN2CCN(C3CCCCC3)C(CCO)C2)cs1 (stereo unspecified)				AC50 (Escherichia coli): 27.7 µM (active)
COc1ccc(O)c(C#N)c1C#N.COc1ccc(OC)c(C#N)c1C#N	> 100 µM (inactive)	> 100 µM (inactive)	> 100 µM (inactive)	
CNC(=O)OCc1c(CO)nc(SC)n1C	> 100 µM (inactive)	> 100 µM (inactive)	> 100 µM (inactive)	
O=C(O)c1ccccc1/N=C/c1ccc(N(CCCl)CCCl)cc1	24.8 µM (inactive)	> 100 µM (inactive)	19.2 µM (inactive)	
NN	68.5 µM (inactive)	96.8 µM (inactive)	105 µM (inactive)	
Brc1ccc2[nH]c3c(C4=NCCC4)nccc3c2c1	9.57 µM (inactive)	9.98 µM (inactive)	9.51 µM (inactive)	
C#CCN1CCN(C(=S)N/N=C(\C)c2ccccn2)CC1	< 0.01 µM (active)	0.01 µM (active)	< 0.01 µM (active)	
O=C(CCCCCN1C(=O)C2C3C=CC(C3)C2C1=O)Nc1ccc2ncccc2c1 (stereo unspecified)				AC50 [6]: 8.81 µM (active)
Cc1ccsc1/C=N/NC(=O)c1cc(-c2ccncc2)nc2ccccc12				EC50 (BJ [7]): 2.93 µM (inconclusive); EC50 (BJ [8]): 2.88 µM (active); EC50 (BJ [9]): 4.22 µM (inconclusive); EC50 [10]: 2.94 µM (active); AC50 [11]: 0.168 µM (active); IC50 [12]: 47.1 µM (inactive)
CC(C)=CC1C(C(=O)O)C1(C)C (stereo unspecified) [CHRYSANTHEMIC ACID]	488 µM (inactive)	> 750 µM (inactive)	> 750 µM (inactive)	
C[C@@H]1CN(c2c(F)c(F)c3c(=O)c(C(=O)O)cn(C4CC4)c3c2F)C[C@H](C)N1 [ORBIFLOXACIN]				AC50 (Escherichia coli): 0.657 µM (active)
